Experimental data from ChEMBL document CHEMBL1155011, “Structure-activity relationships of the cycloalkanol ethylamine scaffold: discovery of selective norepinephrine reuptake inhibitors” (J Med Chem, 2008).

Columns and labels:
[1] = Plasma concentration in Sprague-Dawley rat at 1 mg/kg, iv after 0.5 hrs; format: ADME, organism-based; set-up: dose 1 mg/kg, route intravenous
[2] = molecular target: T1, 5-hydroxytryptamine receptor 7 (Homo sapiens, UniProt P34969); test: Inhibition of 5HT7 receptor by competition radioligand binding assay
T1 sequence (P34969 whole entry): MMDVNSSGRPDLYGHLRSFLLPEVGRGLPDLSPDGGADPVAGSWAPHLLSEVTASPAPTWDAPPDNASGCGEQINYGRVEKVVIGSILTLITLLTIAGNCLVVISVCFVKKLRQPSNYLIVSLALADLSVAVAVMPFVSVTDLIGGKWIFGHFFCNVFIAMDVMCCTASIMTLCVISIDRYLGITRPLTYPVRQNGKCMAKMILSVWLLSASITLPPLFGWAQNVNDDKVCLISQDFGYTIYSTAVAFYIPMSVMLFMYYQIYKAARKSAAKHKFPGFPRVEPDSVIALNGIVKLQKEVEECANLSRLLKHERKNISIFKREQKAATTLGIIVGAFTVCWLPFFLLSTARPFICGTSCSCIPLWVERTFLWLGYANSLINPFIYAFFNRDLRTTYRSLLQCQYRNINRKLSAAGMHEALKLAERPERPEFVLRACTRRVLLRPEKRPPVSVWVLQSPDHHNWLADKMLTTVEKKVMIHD

[3] = Plasma concentration in Sprague-Dawley rat at 1 mg/kg, iv after […]; format: ADME, organism-based; set-up: dose 1 mg/kg, route intravenous
Mus musculus [4] = test: Antidepressant activity in Swiss Webster mouse assessed as decrease in immobility time at 17 mg/kg, ip after 30 mins by tail suspension test; format: functional; set-up: scale not given: the % may be the effect or the level left; conditions: route intraperitoneal
[5] = molecular target: T2, 5-hydroxytryptamine receptor 2B (Homo sapiens, UniProt P41595); test: Inhibition of 5HT2B receptor by competition radioligand binding assay
T2 sequence (P41595 whole entry): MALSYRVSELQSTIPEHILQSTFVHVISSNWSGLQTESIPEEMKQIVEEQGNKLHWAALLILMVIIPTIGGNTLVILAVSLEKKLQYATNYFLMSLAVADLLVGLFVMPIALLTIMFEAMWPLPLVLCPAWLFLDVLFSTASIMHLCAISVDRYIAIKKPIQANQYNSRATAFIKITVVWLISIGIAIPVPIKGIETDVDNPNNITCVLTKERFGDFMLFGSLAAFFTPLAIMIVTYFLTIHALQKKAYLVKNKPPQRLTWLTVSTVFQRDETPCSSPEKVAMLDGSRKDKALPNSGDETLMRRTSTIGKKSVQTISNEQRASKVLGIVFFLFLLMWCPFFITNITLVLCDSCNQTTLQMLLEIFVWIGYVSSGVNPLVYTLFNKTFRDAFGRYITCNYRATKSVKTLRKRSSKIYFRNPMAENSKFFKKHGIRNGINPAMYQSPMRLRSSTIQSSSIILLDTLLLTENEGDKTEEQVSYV

[6] = AUC (0 to infinity) in Sprague-Dawley rat at 30 mg/kg, po; format: ADME, organism-based; set-up: time infinity, dose 30 mg/kg, route oral; conditions: plasma
[7] = Plasma concentration in Sprague-Dawley rat at 30 mg/kg, po after 4 hrs; format: ADME, organism-based; set-up: dose 30 mg/kg, route oral
[8] = Half life in Sprague-Dawley rat at 30 mg/kg, po; format: ADME, organism-based; set-up: dose 30 mg/kg, route oral; conditions: in vivo
[9] = Inhibition of adrenergic receptor 1 alpha by competition radioligand binding assay
[10] = molecular target: T3, 5-hydroxytryptamine receptor 1D (Homo sapiens, UniProt P28221); test: Activity at 5HT1D receptor assessed as calcium mobilization by FLIPR; format: functional
T3 sequence (P28221 whole entry): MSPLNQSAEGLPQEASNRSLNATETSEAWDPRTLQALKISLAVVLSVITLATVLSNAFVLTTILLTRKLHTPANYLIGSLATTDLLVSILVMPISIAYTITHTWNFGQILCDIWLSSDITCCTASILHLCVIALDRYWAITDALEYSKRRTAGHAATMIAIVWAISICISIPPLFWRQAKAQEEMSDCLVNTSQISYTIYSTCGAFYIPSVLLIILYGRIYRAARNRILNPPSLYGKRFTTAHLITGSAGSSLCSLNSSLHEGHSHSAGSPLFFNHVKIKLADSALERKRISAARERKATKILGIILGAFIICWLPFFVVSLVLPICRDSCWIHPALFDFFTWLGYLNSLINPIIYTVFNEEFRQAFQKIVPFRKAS

[11] = Plasma concentration in Sprague-Dawley rat at 30 mg/kg, po after 0.5 hrs; format: ADME, organism-based; set-up: dose 30 mg/kg, route oral
[12] = molecular target: T4, 5-hydroxytryptamine receptor 6 (Homo sapiens, UniProt P50406); test: Inhibition of 5HT6 receptor by competition radioligand binding assay
T4 sequence (P50406 whole entry): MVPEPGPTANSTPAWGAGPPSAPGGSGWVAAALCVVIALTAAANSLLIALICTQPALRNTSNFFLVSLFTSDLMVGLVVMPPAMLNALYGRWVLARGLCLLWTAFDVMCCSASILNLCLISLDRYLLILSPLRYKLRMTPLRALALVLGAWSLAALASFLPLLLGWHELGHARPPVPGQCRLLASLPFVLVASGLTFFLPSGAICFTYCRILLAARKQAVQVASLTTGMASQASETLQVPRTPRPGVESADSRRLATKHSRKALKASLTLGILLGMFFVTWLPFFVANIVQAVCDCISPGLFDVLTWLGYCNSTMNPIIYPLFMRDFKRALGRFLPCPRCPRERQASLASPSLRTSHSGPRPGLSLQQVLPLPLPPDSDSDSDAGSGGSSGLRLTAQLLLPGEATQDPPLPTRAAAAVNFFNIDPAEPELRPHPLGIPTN

[13] = Plasma concentration in Sprague-Dawley rat at 30 mg/kg, ip after 8 hrs; format: ADME, organism-based; set-up: dose 30 mg/kg, route intraperitoneal
[14] = Plasma concentration in Sprague-Dawley rat at 1 mg/kg, iv after 0.033 hrs; format: ADME, organism-based; set-up: dose 1 mg/kg, route intravenous
[15] = molecular target: T1, 5-hydroxytryptamine receptor 7; test: Activity at 5HT7 receptor assessed as calcium mobilization by FLIPR; format: functional
[16] = Plasma concentration in Sprague-Dawley rat at 30 mg/kg, ip after […]; format: ADME, organism-based; set-up: dose 30 mg/kg, route intraperitoneal
[17] = Plasma concentration in Sprague-Dawley rat at 30 mg/kg, po after 2 hrs; format: ADME, organism-based; set-up: dose 30 mg/kg, route oral
[18] = Plasma concentration in Sprague-Dawley rat at 30 mg/kg, po after 6 hrs; format: ADME, organism-based; set-up: dose 30 mg/kg, route oral
[19] = AUC (0 to infinity) in Sprague-Dawley rat at 1 mg/kg, iv; format: ADME, organism-based; set-up: time infinity, dose 1 mg/kg, route intravenous; conditions: plasma
Rattus norvegicus [20] = test: Effect on ovariectomy-induced thermoregulatory dysfunction in telemetry Sprague-Dawley rat model assessed as mean reduction in tail skin temperature at 30 mg/kg, po after 3 hrs relative to control; format: functional
[21] = Cmax in Sprague-Dawley rat at 30 mg/kg, ip; format: ADME, organism-based; set-up: dose 30 mg/kg, route intraperitoneal; conditions: in vivo
[22] = Plasma concentration in Sprague-Dawley rat at 1 mg/kg, iv after 6 hrs; format: ADME, organism-based; set-up: dose 1 mg/kg, route intravenous
[23] = Plasma concentration in Sprague-Dawley rat at 1 mg/kg, iv after 4 hrs; format: ADME, organism-based; set-up: dose 1 mg/kg, route intravenous
[24] = molecular target: T5, 5-hydroxytryptamine receptor 2A (Homo sapiens, UniProt P28223); test: Activity at 5HT2A receptor assessed as calcium mobilization by FLIPR; format: functional
T5 sequence (P28223 whole entry): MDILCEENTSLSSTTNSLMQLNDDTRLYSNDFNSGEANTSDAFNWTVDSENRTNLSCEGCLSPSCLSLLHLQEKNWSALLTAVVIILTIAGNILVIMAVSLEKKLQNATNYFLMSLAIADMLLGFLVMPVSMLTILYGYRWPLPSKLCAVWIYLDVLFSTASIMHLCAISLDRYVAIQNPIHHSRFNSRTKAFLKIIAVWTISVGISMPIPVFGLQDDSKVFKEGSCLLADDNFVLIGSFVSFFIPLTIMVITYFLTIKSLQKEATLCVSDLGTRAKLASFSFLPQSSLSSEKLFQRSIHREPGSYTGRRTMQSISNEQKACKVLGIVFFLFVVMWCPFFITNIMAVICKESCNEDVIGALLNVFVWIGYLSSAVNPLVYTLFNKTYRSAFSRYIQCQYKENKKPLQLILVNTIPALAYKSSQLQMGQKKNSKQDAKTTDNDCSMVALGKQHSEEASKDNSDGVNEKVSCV

[25] = molecular target: T6, 5-hydroxytryptamine receptor 1B (Homo sapiens, UniProt P28222); test: Activity at 5HT1B receptor assessed as calcium mobilization by FLIPR; format: functional
T6 sequence (P28222 whole entry): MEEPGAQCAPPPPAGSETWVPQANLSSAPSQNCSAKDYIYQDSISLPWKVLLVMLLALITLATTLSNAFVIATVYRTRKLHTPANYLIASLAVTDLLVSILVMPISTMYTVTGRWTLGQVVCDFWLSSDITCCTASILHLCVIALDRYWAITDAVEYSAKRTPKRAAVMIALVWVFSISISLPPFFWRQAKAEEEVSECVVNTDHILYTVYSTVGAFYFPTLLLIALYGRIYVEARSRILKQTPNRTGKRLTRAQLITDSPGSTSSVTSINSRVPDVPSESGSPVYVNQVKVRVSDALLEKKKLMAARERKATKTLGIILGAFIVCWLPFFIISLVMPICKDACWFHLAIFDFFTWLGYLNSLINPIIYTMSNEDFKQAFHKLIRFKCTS

[26] = molecular target: T2, 5-hydroxytryptamine receptor 2B; test: Activity at 5HT2B receptor assessed as calcium mobilization by FLIPR; format: functional
[27] = Activity at adrenergic receptor 1 alpha assessed as calcium mobilization by FLIPR
[28] = Plasma concentration in Sprague-Dawley rat at 30 mg/kg, ip after 0.033 hrs; format: ADME, organism-based; set-up: dose 30 mg/kg, route intraperitoneal
[29] = Plasma concentration in Sprague-Dawley rat at 30 mg/kg, po after 8 hrs; format: ADME, organism-based; set-up: dose 30 mg/kg, route oral
[30] = Cmax in Sprague-Dawley rat at 30 mg/kg, po; format: ADME, organism-based; set-up: dose 30 mg/kg, route oral; conditions: in vivo
[31] = Plasma concentration in Sprague-Dawley rat at 30 mg/kg, ip after 4 hrs; format: ADME, organism-based; set-up: dose 30 mg/kg, route intraperitoneal
[32] = molecular target: Sodium-dependent dopamine transporter (Homo sapiens, UniProt Q01959); test: Displacement of [3H]WIN-35428 from human recombinant dopamine transporter expressed in CHO cells at 1000 nM; format: cell-based
Chain of Sodium-dependent dopamine transporter (Q01959 whole entry): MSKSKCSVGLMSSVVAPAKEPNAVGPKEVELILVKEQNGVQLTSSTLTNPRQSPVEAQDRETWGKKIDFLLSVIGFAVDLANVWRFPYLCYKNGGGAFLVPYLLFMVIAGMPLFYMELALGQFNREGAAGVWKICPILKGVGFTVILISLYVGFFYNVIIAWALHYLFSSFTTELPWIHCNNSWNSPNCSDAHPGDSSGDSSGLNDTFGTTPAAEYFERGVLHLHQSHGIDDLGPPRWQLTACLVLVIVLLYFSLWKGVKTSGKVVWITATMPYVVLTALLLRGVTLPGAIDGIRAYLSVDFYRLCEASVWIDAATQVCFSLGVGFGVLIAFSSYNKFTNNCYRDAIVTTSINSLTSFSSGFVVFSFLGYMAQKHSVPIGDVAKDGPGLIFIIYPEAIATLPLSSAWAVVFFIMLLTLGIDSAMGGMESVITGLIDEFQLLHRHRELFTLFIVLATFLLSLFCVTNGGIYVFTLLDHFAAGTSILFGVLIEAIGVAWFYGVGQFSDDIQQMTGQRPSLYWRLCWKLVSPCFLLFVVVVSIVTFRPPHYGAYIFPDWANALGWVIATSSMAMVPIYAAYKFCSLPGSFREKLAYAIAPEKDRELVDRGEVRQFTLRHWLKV

[33] = Plasma concentration in Sprague-Dawley rat at 30 mg/kg, po after […]; format: ADME, organism-based; set-up: dose 30 mg/kg, route oral
[34] = Plasma concentration in Sprague-Dawley rat at 30 mg/kg, ip after 0.5 hrs; format: ADME, organism-based; set-up: dose 30 mg/kg, route intraperitoneal
[35] = Plasma concentration in Sprague-Dawley rat at 1 mg/kg, iv after 2 hrs; format: ADME, organism-based; set-up: dose 1 mg/kg, route intravenous
[36] = molecular target: T4, 5-hydroxytryptamine receptor 6; test: Activity at 5HT6 receptor assessed as calcium mobilization by FLIPR; format: functional
[37] = Plasma concentration in Sprague-Dawley rat at 30 mg/kg, po after 1 hr; format: ADME, organism-based; set-up: dose 30 mg/kg, route oral
[38] = AUC (0 to infinity) in Sprague-Dawley rat at 30 mg/kg, ip; format: ADME, organism-based; set-up: time infinity, dose 30 mg/kg, route intraperitoneal; conditions: plasma
[39] = Half life in Sprague-Dawley rat at 30 mg/kg, ip; format: ADME, organism-based; set-up: dose 30 mg/kg, route intraperitoneal; conditions: in vivo
[40] = Plasma concentration in Sprague-Dawley rat at 30 mg/kg, ip after 1 hr; format: ADME, organism-based; set-up: dose 30 mg/kg, route intraperitoneal
[41] = molecular target: T3, 5-hydroxytryptamine receptor 1D; test: Inhibition of 5HT1D receptor by competition radioligand binding assay
[42] = molecular target: T6, 5-hydroxytryptamine receptor 1B; test: Inhibition of 5HT1B receptor by competition radioligand binding assay
[43] = Plasma concentration in Sprague-Dawley rat at 1 mg/kg, iv after 1 hr; format: ADME, organism-based; set-up: dose 1 mg/kg, route intravenous
[44] = molecular target: Sodium-dependent serotonin transporter (Homo sapiens, UniProt P31645); test: Inhibition of 5HT uptake at human SERT expressed in human JAR cells at 1000 nM; format: cell-based
Chain of Sodium-dependent serotonin transporter (P31645 whole entry, looked up): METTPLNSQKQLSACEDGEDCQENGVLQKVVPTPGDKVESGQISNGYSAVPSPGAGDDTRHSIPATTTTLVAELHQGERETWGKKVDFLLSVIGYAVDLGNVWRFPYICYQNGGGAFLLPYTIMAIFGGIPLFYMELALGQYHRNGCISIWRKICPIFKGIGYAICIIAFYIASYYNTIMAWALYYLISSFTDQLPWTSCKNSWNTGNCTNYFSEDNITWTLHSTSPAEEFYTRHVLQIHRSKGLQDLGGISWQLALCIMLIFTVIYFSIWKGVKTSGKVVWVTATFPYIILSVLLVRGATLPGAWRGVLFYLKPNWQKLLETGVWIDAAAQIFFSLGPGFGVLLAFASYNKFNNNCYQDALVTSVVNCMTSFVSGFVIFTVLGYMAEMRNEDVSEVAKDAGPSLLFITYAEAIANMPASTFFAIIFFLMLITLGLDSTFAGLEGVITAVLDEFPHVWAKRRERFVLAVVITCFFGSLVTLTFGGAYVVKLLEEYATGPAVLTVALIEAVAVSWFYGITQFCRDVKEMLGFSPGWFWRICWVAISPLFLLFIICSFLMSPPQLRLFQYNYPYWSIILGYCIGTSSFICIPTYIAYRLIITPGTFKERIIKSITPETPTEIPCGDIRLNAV

[45] = Plasma concentration in Sprague-Dawley rat at 30 mg/kg, ip after 2 hrs; format: ADME, organism-based; set-up: dose 30 mg/kg, route intraperitoneal
[46] = molecular target: T5, 5-hydroxytryptamine receptor 2A; test: Inhibition of 5HT2A receptor by competition radioligand binding assay
[47] = Plasma concentration in Sprague-Dawley rat at 30 mg/kg, ip after 6 hrs; format: ADME, organism-based; set-up: dose 30 mg/kg, route intraperitoneal
Rattus norvegicus [48] = test: Effect on ovariectomy-induced thermoregulatory dysfunction in telemetry Sprague-Dawley rat model assessed as mean reduction in tail skin temperature at 30 mg/kg, ip after 6.5 hrs relative to control; format: functional; conditions: route intraperitoneal
Mus musculus [49] = test: Antidepressant activity in Swiss Webster mouse assessed as decrease in immobility time at 30 mg/kg, ip after 30 mins by tail suspension test; format: functional; set-up: scale not given: the % may be the effect or the level left; conditions: route intraperitoneal

With `CN1CCN(C[C@H](c2cccc(OC(F)(F)F)c2)C2(O)CCCCC2)CC1.Cl.Cl` the concentration at 0.5 h [1] was 187 ng/mL, the IC50 [2] was greater than 10 µM and the concentration at […] [3] was 225 ng/mL. The Activity (Mus musculus [4]) was 38%, the IC50 [5] was greater than 10 µM and the AUC(0-inf) [6] was 931 ng·h/mL. The concentration at 4 h [7] was 79.5 ng/mL, the half-life [8] was 1.6 h and the IC50 [9] was greater than 10 µM. For the same molecule, the EC50 [10] was greater than 10 µM, the concentration at 0.5 h [11] was 323 ng/mL and the IC50 [12] was greater than 10 µM. The concentration at 8 h [13] was 143 ng/mL, the concentration at 0.033 h [14] was 164 ng/mL and the EC50 [15] was greater than 10 µM. For the same molecule, the concentration at […] [16] was 1580 ng/mL, the concentration at 2 h [17] was 182 ng/mL and the concentration at 6 h [18] was 36.5 ng/mL. The AUC(0-inf) [19] was 367 ng·h/mL, the Activity (Rattus norvegicus [20]) was -2.16 °C and the Cmax [21] was 2690 ng/mL. For the same molecule, the concentration at 6 h [22] was 2.98 ng/mL, the concentration at 4 h [23] was 19.1 ng/mL and the EC50 [24] was greater than 10 µM. For the same molecule, the EC50 [25] was greater than 10 µM, the EC50 [26] was greater than 10 µM and the EC50 [27] was greater than 10 µM. For the same molecule, the concentration at 0.033 h [28] was 942 ng/mL, the concentration at 8 h [29] was 14.3 ng/mL and the Cmax [30] was 324 ng/mL. For the same molecule, the concentration at 4 h [31] was 520 ng/mL, the Activity [32] was 6% and the concentration at […] [33] was 115 ng/mL. The concentration at 0.5 h [34] was 2160 ng/mL, the concentration at 2 h [35] was 55.4 ng/mL and the EC50 [36] was greater than 10 µM. The concentration at 1 h [37] was 304 ng/mL, the AUC(0-inf) [38] was 6160 ng·h/mL and the half-life [39] was 2.3 h. It also gave a concentration at 1 h [40] of 1960 ng/mL, an IC50 [41] greater than 10 µM and an IC50 [42] greater than 10 µM. It also gave a concentration at 1 h [43] of 109 ng/mL, an inhibition [44] of 3% and a concentration at 2 h [45] of 735 ng/mL. It also gave an IC50 [46] greater than 10 µM, a concentration at 6 h [47] of 303 ng/mL and an Activity (Rattus norvegicus [48]) of -2.75 °C. It also gave an Activity (Mus musculus [49]) of 53%.
